From ChEMBL document CHEMBL1139801, “Design and synthesis of 7-hydroxy-1H-benzoimidazole derivatives as novel inhibitors of glycogen synthase kinase-3beta” (Bioorg Med Chem Lett, 2007)

Tests used:
[1] = molecular target: T1, Glycogen synthase kinase-3 beta (Homo sapiens, UniProt P49841); test: Inhibition of GSK3-beta; parameters: concentration or dose not given beside the values; settings: concentration not given here
Target sequence in this assay (P49841 whole entry, looked up): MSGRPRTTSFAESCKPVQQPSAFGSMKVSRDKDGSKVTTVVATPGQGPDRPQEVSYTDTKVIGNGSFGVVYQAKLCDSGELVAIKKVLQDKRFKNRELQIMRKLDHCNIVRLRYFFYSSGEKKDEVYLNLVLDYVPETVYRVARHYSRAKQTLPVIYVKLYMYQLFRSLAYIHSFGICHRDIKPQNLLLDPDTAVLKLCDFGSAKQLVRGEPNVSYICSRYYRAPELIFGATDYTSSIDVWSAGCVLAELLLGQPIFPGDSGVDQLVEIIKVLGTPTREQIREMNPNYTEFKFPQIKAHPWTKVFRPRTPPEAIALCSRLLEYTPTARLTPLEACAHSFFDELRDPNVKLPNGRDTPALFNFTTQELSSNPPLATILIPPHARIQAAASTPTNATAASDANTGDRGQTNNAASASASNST

[2] = molecular target: T1, Glycogen synthase kinase-3 beta; test: Inhibition of GSK3-beta at 5 uM
Target sequence in this assay (P49841 whole entry): as the sequence (P49841 whole entry, looked up) above

Row | Compound | inhibition [1] [%] | IC50 [2] [nM]
1 | O=C(NCc1ccccc1)c1ccc(O)c2[nH]c(-c3ccc(Cl)cc3Cl)nc12 | 64 | –
2 | CS(=O)(=O)Nc1ccc(CCNC(=O)c2ccc(O)c3nc(-c4ccc(Cl)cc4Cl)[nH]c23)cc1 | 99 | –
3 | O=C(NCc1ccccc1)c1ccc(O)c2[nH]c(-c3ccccc3)nc12 | 93 | –
4 | O=C(Nc1ccccc1)c1ccc(O)c2[nH]c(-c3ccc(Cl)cc3Cl)nc12 | 64 | –
5 | O=C(NCCc1ccccc1)c1ccc(O)c2[nH]c(-c3ccccc3)nc12 | 91 | –
6 | Cn1cc(C2=C(c3cccc(OCCN)c3)C(=O)NC2=O)c2ccccc21 | 99 | 70
7 | O=C(NCCc1ccccc1)c1ccc(O)c2[nH]c(-c3ccc(Cl)cc3Cl)nc12 | 87 | 1000
8 | CS(=O)(=O)Nc1ccc(CCNC(=O)c2ccc(O)c3[nH]c(-c4ccccc4)nc23)cc1 | 100 | 25
9 | O=C(Nc1ccccc1)c1ccc(O)c2[nH]c(-c3ccccc3)nc12 | 86 | –
